The subject of the assay is healthy young individuals. In words: Double-blind, placebo-controlled crossover study of lycopene consumption, heart rate and blood pressure measured. The class given is in vivo, human. Here is the method: A double-blind, placebo-controlled crossover study of lycopene consumption in 16 healthy young individuals. Each subject was studied at baseline and then given 15 mg lycopene or placebo for two weeks and re-evaluated. A one-month lycopene administration free washout period followed, another lycopene administration was administered prior to a final evaluation. Each evaluation included measures among other parameters also heart rate and blood pressure. […]

Setting [1] is: 16 healthy young individuals, 15 mg lycopene for two weeks.

As to `CC(C)=CCC/C(C)=C/C=C/C(C)=C/C=C/C(C)=C/C=C/C=C(C)/C=C/C=C(C)/C=C/C=C(\C)CCC=C(C)C` [Lycopene, lycopene], under setting [1], the “Diastolic Blood Pressure” value stood at 66 ± 2 mmHg and the “Systolic Blood Pressure” value is recorded as 114 ± 2 mmHg. In addition, the “Change in diastolic blood pressure as compared to placebo administration” value (during lycopene administration, 15 mg for two weeks, p<0.05) is given as “significant reduction”.

Values taken from patent US20040106687A1, “Carotenoids as anti-hypertension agents” (priority 2001, published 2004).
